Values quoted from earlier work, collected in patent US9481856B2, “Pharmaceutical formulations comprising stabilized polysaccharides and source of hydrogen peroxide” (Bausch & Lomb Incorporated, priority 2008, dated 2016).

Key:
[1] = system: sensitive tissues of the eye

For “α-4-{tris(2hydroxyethyl)ammonium-2-butenyl} poly {1-dimethylammonium-2-butenyl}-ω-tris(2-hydroxyethyl)ammonium chloride [polyquaternium-1]”, the “effect on goblet cell density” value (goblet cell) is given as “significantly to decrease goblet cell density”.
For benzalkonium chloride [BAK], the concentration causing necrosis [1] is given as 0.05-0.1%.
